# Tests used:
# human GPR139 [1] = target: T1, human GPR139 (Homo sapiens, UniProt Q6DWJ6); experiment: Inhibition rate of the amount of IP1 in GPR139-expressed CHO cells (inverse agonist assay, Test Example 2); assay type: cell-based; conditions: CHO, relative value, inhibition rate of Example Compound 2 in Test Example 1 defined as 100%
# T1 construct: expressed in transfected cells; host or cells: CHO-TREx (Life Technologies) cells, expression induced with doxycycline
# T1 sequence (Q6DWJ6 1-353): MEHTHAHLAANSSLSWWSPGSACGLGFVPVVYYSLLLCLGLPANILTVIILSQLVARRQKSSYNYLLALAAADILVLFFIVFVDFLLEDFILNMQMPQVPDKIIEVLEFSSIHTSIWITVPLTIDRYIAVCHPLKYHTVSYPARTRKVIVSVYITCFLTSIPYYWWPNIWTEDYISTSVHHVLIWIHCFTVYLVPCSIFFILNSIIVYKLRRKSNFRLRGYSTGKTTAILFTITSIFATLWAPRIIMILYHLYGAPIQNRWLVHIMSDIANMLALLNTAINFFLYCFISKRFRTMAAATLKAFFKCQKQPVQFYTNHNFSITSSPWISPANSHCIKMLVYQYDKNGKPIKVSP
# How it was run: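 IP1 accumulation read by IP-One HTRF after 40 min compound exposure at 37° C in stimulation buffer, 2000 cells/well, GPR139 expression induced the day before with doxycycline. Results given as relative inhibition rate, normalised to a reference compound set at […].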
# human GPR139 [2] = target: T1, human GPR139; experiment: Inhibition rate of the amount of IP1 in GPR139-expressed CHO cells (Test Example 1, IP-ONE HTRF assay); assay type: cell-based
# Protocol: Measurement of the Inhibition Rate of the Amount of IP1 in 30 μM of the Compound of Example 2 in GPR139-Expressed CHO Cells
# Changes in the amount of IP1 in GPR139-expressed CHO cells were measured in order to evaluate the activity of the compound via GPR139. GPR139 is a Gq-coupled receptor which varies intracellular calcium (Liu C et al., Mol Pharmacol. 2015 November; 88(5):911-25), so the amount of IP1, which is a stable metabolite of the second messenger IP3, changes due to activity regulation of GPR139. GPR139 is considered to be […] when expressed recombinantly in mammal cells, so a compound having a GPR139 receptor inverse agonist action is expected to reduce the amount of IP1 production.
# The measurement of IP1 was made using an IP-ONE HTFR assay kit (cis-bio) and CHO-TREx (Life Technologies) cells stably transfected with GPR139. The CHO-TREx cells expressed human GPR139 with a tetracycline-inducing element. […]
# The compound was diluted with the stimulation buffer, and 4 μL was added to a 384-well white assay plate (Greiner). […] After the fluorescence strengths of two wavelengths were measured by the HTRF settings of Envision (PerkinElmer), the value of Ratio={(Signal 665 nm)/(Signal 615 nm)}×10000 was calculated.
compound,measurement,setting,value
"CCn1cc(Cn2ccn(-c3cc(N4CCO[C@H](C)C4)cc(C(F)(F)F)c3F)c2=O)cn1 [Example 2, 1-[(1-Ethyl-1H-pyrazole-4-yl)methyl]-3-{2-fluoro-5-[(2R)-2-methylmorpholine-4-yl]-3-(trifluoromethyl)phenyl}-1,3-dihydro-2H-imidazole-2-one]",inhibition at 30 µM,human GPR139 [1],100%
same,GPR139 receptor inverse agonist action (result in words),human GPR139 [2],exhibits GPR139 receptor inverse agonist action
